According to patent US9776995B2, “Bicyclic sulfonamide compounds as sodium channel inhibitors” (AMGEN INC., priority 2013, dated 2017):
Like-named read-outs stand apart in the source and are kept apart here. Each block holds one compound with its values, some of them ahead of it.

How the values were obtained:
Nav 1.5 = Nav 1.5 (Homo sapiens (Human), UniProt Q14524); experiment: in-vitro Nav 1.5 PX data; details: read-out: Nav 1.5 PX IC50
Nav 1.7 = Nav 1.7 (Homo sapiens (Human), UniProt Q15858); experiment: in-vitro Nav 1.7 PX data; type: cell-based
Nav 1.7, sequence (Q15858 whole entry): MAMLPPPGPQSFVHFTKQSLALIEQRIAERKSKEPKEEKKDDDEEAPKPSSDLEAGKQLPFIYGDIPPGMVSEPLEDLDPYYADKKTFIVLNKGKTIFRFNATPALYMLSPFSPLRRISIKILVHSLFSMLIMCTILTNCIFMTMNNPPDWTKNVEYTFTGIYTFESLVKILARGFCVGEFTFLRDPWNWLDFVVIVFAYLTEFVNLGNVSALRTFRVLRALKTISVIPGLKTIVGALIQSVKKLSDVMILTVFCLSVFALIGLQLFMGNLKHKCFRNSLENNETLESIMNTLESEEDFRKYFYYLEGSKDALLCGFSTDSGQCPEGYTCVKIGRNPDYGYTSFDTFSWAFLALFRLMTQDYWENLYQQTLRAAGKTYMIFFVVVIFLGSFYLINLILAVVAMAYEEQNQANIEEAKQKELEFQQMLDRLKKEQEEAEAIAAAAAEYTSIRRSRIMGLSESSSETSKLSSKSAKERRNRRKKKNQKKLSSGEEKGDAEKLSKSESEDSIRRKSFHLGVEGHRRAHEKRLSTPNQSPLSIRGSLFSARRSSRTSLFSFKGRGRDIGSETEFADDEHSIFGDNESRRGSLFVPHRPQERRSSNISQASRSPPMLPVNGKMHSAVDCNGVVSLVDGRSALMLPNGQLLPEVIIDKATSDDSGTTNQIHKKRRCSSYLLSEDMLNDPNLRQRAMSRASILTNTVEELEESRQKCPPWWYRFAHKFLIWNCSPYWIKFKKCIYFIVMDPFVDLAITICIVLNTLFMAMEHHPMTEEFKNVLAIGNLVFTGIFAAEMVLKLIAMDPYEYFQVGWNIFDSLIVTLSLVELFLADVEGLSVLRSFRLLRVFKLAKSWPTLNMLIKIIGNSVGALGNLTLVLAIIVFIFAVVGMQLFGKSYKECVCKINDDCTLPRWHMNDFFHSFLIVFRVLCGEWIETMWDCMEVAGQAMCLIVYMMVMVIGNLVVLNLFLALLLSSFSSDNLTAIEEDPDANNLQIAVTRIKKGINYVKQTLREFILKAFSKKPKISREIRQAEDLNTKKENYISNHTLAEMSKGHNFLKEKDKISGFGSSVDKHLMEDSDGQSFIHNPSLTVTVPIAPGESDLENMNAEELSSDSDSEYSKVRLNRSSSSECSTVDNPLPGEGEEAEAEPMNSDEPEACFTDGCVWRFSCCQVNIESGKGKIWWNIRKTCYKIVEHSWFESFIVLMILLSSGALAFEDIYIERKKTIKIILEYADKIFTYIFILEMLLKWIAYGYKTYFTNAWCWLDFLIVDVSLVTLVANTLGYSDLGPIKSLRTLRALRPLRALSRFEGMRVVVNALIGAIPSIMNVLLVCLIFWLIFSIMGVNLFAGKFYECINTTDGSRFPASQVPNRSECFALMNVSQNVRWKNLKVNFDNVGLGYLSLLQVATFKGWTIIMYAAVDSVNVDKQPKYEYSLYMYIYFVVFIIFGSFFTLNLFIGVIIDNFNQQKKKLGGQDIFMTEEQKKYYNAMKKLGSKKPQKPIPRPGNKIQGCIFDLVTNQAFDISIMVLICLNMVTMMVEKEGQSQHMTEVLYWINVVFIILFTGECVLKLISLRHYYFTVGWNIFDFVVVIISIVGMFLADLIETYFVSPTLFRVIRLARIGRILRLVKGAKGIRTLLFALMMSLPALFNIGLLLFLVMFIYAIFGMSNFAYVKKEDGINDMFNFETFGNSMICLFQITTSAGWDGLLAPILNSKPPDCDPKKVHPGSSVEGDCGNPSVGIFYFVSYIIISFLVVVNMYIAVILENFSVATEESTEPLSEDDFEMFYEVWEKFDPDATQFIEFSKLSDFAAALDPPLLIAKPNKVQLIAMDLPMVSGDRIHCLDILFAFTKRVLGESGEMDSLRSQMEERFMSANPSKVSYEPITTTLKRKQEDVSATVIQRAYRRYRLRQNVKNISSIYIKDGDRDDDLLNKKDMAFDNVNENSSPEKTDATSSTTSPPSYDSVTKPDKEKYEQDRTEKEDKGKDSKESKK

Nav 1.5, sequence (Q14524 whole entry): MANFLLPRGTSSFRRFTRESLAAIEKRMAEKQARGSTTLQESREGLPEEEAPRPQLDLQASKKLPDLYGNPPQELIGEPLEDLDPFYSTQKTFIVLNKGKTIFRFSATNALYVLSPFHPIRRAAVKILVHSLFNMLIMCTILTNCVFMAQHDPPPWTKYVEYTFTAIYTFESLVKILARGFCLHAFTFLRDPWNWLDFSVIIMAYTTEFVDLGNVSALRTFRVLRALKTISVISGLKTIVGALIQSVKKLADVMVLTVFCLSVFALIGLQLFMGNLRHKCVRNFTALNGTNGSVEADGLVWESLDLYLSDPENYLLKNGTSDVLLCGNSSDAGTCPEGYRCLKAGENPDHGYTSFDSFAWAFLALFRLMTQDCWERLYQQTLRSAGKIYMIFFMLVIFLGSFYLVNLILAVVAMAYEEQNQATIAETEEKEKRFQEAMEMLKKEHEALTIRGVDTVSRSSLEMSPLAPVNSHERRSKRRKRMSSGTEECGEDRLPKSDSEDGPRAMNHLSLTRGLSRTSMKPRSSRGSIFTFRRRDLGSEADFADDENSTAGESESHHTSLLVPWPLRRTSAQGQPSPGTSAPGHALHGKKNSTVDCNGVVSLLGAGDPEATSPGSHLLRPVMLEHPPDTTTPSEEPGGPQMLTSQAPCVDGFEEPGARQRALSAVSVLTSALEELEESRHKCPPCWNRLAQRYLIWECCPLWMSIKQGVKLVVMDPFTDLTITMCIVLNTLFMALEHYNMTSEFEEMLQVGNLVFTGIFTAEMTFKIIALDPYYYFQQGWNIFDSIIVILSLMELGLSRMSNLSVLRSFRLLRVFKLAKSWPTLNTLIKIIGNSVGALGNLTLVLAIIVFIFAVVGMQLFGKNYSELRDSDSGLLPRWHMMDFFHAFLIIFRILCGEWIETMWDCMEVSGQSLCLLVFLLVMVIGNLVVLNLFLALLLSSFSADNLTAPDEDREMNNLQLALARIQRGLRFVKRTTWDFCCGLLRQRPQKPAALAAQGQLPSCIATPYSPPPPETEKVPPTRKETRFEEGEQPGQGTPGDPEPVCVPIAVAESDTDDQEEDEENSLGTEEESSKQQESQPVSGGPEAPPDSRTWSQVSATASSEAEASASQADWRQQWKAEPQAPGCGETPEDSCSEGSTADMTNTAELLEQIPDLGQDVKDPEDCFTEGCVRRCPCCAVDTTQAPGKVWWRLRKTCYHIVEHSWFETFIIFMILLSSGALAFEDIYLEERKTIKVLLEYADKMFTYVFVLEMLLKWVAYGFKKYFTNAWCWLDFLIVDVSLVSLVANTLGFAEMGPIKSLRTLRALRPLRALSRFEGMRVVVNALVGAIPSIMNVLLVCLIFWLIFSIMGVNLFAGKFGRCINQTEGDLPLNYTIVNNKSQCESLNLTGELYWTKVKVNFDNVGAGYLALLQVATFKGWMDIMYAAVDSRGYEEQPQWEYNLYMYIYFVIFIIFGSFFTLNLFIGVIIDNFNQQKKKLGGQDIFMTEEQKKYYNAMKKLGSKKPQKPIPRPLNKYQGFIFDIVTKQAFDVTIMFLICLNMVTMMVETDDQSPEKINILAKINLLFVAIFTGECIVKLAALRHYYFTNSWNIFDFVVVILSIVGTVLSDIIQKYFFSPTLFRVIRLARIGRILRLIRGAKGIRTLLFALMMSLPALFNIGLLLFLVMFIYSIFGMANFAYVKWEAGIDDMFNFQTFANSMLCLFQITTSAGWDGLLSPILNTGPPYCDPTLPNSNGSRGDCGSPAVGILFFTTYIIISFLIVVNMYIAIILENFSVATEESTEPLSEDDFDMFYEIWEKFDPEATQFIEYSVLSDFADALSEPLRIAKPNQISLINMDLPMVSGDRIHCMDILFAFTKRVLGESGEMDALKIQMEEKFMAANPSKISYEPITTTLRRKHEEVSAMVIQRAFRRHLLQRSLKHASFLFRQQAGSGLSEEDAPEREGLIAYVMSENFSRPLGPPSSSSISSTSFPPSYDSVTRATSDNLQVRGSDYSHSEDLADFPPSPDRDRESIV

IC50 (Nav 1.7; in-vitro PX (PatchXpress) data): 424 nM
SMILES: COc1cc(-c2cc(F)cnc2OC)c(C#N)cc1-c1ncnc2cc(S(=O)(=O)Nc3ccon3)ccc12 [Example 201, 4-(5-cyano-4-(5-fluoro-2-methoxy-3-pyridinyl)-2-methoxyphenyl)-N-3-isoxazolyl-7-quinazolinesulfonamide]
IC50 (Nav 1.5; in-vitro PX (PatchXpress) data): > 10000 nM

IC50 (Nav 1.7; in-vitro PX data): 497 nM
SMILES: COc1cc(NS(=O)(=O)c2ccc3c(-c4ccc(-c5cc(F)cc(F)c5)cc4OC)nccc3c2)ncn1 [Example 125, 1-(3′,5′-difluoro-3-methoxy-4-biphenylyl)-N-(6-methoxy-4-pyrimidinyl)-6-isoquinolinesulfonamide]
IC50 (Nav 1.5; in-vitro PX data): > 10000 nM

IC50 (Nav 1.7; in-vitro PX (PatchXpress) data): 133 nM
SMILES: COc1cc(Oc2ccc(C)c(F)c2)ccc1-c1nccc2cc(S(=O)(=O)Nc3nncs3)ccc12 [Example 194, 1-(4-(3-fluoro-4-methylphenoxy)-2-methoxyphenyl)-N-1,3,4-thiadiazol-2-yl-6-isoquinolinesulfonamide]
IC50 (Nav 1.5; in-vitro PX (PatchXpress) data): > 10000 nM

IC50 (Nav 1.7; in-vitro PX (PatchXpress) data): 520 nM
SMILES: COc1cc(Oc2cc(C)cc(C)c2)ccc1-c1nccc2cc(S(=O)(=O)Nc3ccncn3)ccc12 [Example 180, 1-(4-(3,5-dimethylphenoxy)-2-methoxyphenyl)-N-4-pyrimidinyl-6-isoquinolinesulfonamide]
IC50 (Nav 1.5; in-vitro PX (PatchXpress) data): > 10000 nM

SMILES: COc1cc(-c2cccc(F)c2)c(Cl)cc1-c1nn(C)c(=O)c2cc(S(=O)(=O)Nc3ccon3)ccc12 [Example 21, 1-(2-CHLORO-3′-FLUORO-5-METHOXY-[1,1′-BIPHENYL]-4-YL)-N-(ISOXAZOL-3-YL)-3-METHYL-4-OXO-3,4-DIHYDROPHTHALAZINE-6-SULFONAMIDE]
IC50 (Nav 1.5; in-vitro PX): > 10000 nM
IC50 (Nav 1.7): 42.4 nM

IC50 (Nav 1.7; in-vitro PX data): 112 nM
SMILES: COc1cc(-c2cccc(F)c2)c(Cl)cc1-c1nncc2cc(S(=O)(=O)Nc3nncs3)ccc12 [Example 9, 1-(2-CHLORO-3′-FLUORO-5-METHOXY-[1,1′-BIPHENYL]-4-YL)-N-(1,3,4-THIADIAZOL-2-YL)PHTHALAZINE-6-SULFONAMIDE]
IC50 (Nav 1.5; in-vitro PX data): > 10000 nM

IC50 (Nav 1.7; PatchXpress (PX), in vitro): 26.1 nM
SMILES: COc1cc(-c2ccc(Cl)c(C)c2)c(C#N)cc1-c1nccc2cc(S(=O)(=O)Nc3ccon3)ccc12 [Example 82, 1-(4′-chloro-2-cyano-5-methoxy-3′-methyl-4-biphenylyl)-N-3-isoxazolyl-6-isoquinolinesulfonamide]
IC50 (Nav 1.5; PatchXpress (PX), in vitro): > 10000 nM

IC50 (Nav 1.7; in-vitro Nav 1.7 PX data): 80.1 nM
SMILES: COc1cc(-c2cc(F)cnc2OC)ccc1-c1nccc2cc(S(=O)(=O)Nc3nncs3)ccc12 [Example 30, 1-(4-(5-FLUORO-2-METHOXYPYRIDIN-3-YL)-2-METHOXYPHENYL)-N-(1,3,4-THIADIAZOL-2-YL)ISOQUINOLINE-6-SULFONAMIDE]
IC50 (Nav 1.5; in-vitro Nav 1.5 PX data): > 30000 nM

IC50 (Nav 1.7; in-vitro PX data): 106 nM
SMILES: COc1cc(-c2cc(F)cc(F)c2)ccc1-c1nccc2cc(S(=O)(=O)Nc3ncon3)ccc12 [Example 127, 1-(3′,5′-difluoro-3-methoxy-4-biphenylyl)-N-1,2,4-oxadiazol-3-yl-6-isoquinolinesulfonamide]
IC50 (Nav 1.5; in-vitro PX data): > 10000 nM

IC50 (Nav 1.7; PatchXpress (PX), in vitro): 311 nM
SMILES: COc1cc(-c2ccccc2)ccc1-c1nccc2cc(S(=O)(=O)Nc3ccon3)ccc12 [Example 49, N-(ISOXAZOL-3-YL)-1-(3-METHOXY-[1,1′-BIPHENYL]-4-YL)ISOQUINOLINE-6-SULFONAMIDE]
IC50 (Nav 1.5; PatchXpress (PX), in vitro): > 10000 nM

IC50 (Nav 1.7; in-vitro PX (PatchXpress) data): 183 nM
SMILES: COc1cc(-c2cc(F)cnc2OC)c(C)cc1-c1ncnc2cc(S(=O)(=O)Nc3ccon3)ccc12 [Example 198, 4-(4-(5-fluoro-2-methoxy-3-pyridinyl)-2-methoxy-5-methylphenyl)-N-3-isoxazolyl-7-quinazolinesulfonamide]
IC50 (Nav 1.5; in-vitro PX (PatchXpress) data): > 10000 nM

IC50 (Nav 1.7; in-vitro PX data): 21 nM
SMILES: COc1cc(-c2cccc(C(F)(F)F)c2)c(C#N)cc1-c1nccc2cc(S(=O)(=O)Nc3ncon3)ccc12 [Example 118, 1-(2-cyano-5-methoxy-3′-(trifluoromethyl)-4-biphenylyl)-N-1,2,4-oxadiazol-3-yl-6-isoquinolinesulfonamide]
IC50 (Nav 1.5; in-vitro PX data): > 10000 nM

IC50 (Nav 1.7; in-vitro PX (PatchXpress) data): 36 nM
SMILES: COc1cc(-c2ccc(F)c(F)c2)c(C)cc1-c1ncnc2cc(S(=O)(=O)Nc3ccon3)ccc12 [Example 199, 4-(3′,4′-difluoro-5-methoxy-2-methyl-4-biphenylyl)-N-3-isoxazolyl-7-quinazolinesulfonamide]
IC50 (Nav 1.5; in-vitro PX (PatchXpress) data): > 10000 nM

IC50 (Nav 1.7; in-vitro PX (PatchXpress) data): 99.4 nM
SMILES: COc1cc(Oc2cc(F)ccc2F)ccc1-c1nccc2cc(S(=O)(=O)Nc3nncs3)ccc12 [Example 187, 1-(4-(2,5-difluorophenoxy)-2-methoxyphenyl)-N-1,3,4-thiadiazol-2-yl-6-isoquinolinesulfonamide]
IC50 (Nav 1.5; in-vitro PX (PatchXpress) data): > 10000 nM

IC50 (Nav 1.7; PatchXpress (PX), in vitro): 45.6 nM
SMILES: COc1cc(-c2cccc(F)c2)c(Cl)cc1-c1nccc2cc(S(=O)(=O)Nc3ccon3)c(F)cc12 [Example 43, 1-(2-CHLORO-3′-FLUORO-5-METHOXY-[1,1′-BIPHENYL]-4-YL)-7-FLUORO-N-(ISOXAZOL-3-YL)ISOQUINOLINE-6-SULFONAMIDE]
IC50 (Nav 1.5; PatchXpress (PX), in vitro): > 10000 nM

IC50 (Nav 1.7; in-vitro PX): 47.1 nM
SMILES: COc1cc(-c2cc(F)cc(F)c2)c(Cl)cc1-c1nn(C)c(=O)c2cc(S(=O)(=O)Nc3nncs3)ccc12 [Example 235, 1-(2-chloro-3′,5′-difluoro-5-methoxy-4-biphenylyl)-3-methyl-4-oxo-N-1,3,4-thiadiazol-2-yl-3,4-dihydro-6-phthalazinesulfonamide]
IC50 (Nav 1.5; in-vitro PX): > 10000 nM

IC50 (Nav 1.7; PatchXpress (PX), in vitro): 14.7 nM
SMILES: COc1cc(-c2ccc(F)c(Cl)c2)c(C#N)cc1-c1nccc2cc(S(=O)(=O)Nc3ccon3)ccc12 [Example 84, 1-(3′-chloro-2-cyano-4′-fluoro-5-methoxy-4-biphenylyl)-N-3-isoxazolyl-6-isoquinolinesulfonamide]
IC50 (Nav 1.5; PatchXpress (PX), in vitro): > 10000 nM

IC50 (Nav 1.7; in-vitro PX (PatchXpress) data): 203 nM
SMILES: COc1cccc(Oc2ccc(-c3nccc4cc(S(=O)(=O)Nc5ccncn5)ccc34)c(OC)c2)c1 [Example 183, 1-(2-methoxy-4-(3-methoxyphenoxy)phenyl)-N-4-pyrimidinyl-6-isoquinolinesulfonamide]
IC50 (Nav 1.5; in-vitro PX (PatchXpress) data): > 10000 nM

IC50 (Nav 1.7; in-vitro Nav 1.7 PX data): 470 nM
SMILES: COc1ccc(F)cc1-c1cc(OC)c(-c2nccc3cc(S(=O)(=O)Nc4ccncn4)ccc23)cc1C#N [Example 162, 1-(2-cyano-5′-fluoro-2′,5-dimethoxy-4-biphenylyl)-N-4-pyrimidinyl-6-isoquinolinesulfonamide]
IC50 (Nav 1.5; in-vitro Nav 1.5 PX data): > 10000 nM

IC50 (Nav 1.7; PatchXpress (PX), in vitro): 88 nM
SMILES: COc1cc(-c2ccccc2C)c(C#N)cc1-c1nccc2cc(S(=O)(=O)Nc3ccon3)ccc12 [Example 79, 1-(2-cyano-5-methoxy-2′-methyl-4-biphenylyl)-N-3-isoxazolyl-6-isoquinolinesulfonamide]
IC50 (Nav 1.5; PatchXpress (PX), in vitro): > 10000 nM

IC50 (Nav 1.7; in-vitro PX): 21.8 nM
SMILES: COc1cc(-c2cc(C)cc(F)c2)c(C#N)cc1-c1nccc2cc(S(=O)(=O)Nc3nncs3)ccc12 [Example 222, 1-(2-cyano-3′-fluoro-5-methoxy-5′-methyl-4-biphenylyl)-N-1,3,4-thiadiazol-2-yl-6-isoquinolinesulfonamide]
IC50 (Nav 1.5; in-vitro PX): > 10000 nM

SMILES: COc1cc(-c2cccc(F)c2)c(Cl)cc1-c1nccc2cc(S(=O)(=O)Nc3ncon3)ccc12 [Example 7, 1-(2-CHLORO-3′-FLUORO-5-METHOXY-[1,1′-BIPHENYL]-4-YL)-N-(1,2,4-OXADIAZOL-3-YL)ISOQUINOLINE-6-SULFONAMIDE 2,2,2-TRIFLUOROACETATE]
IC50 (Nav 1.5; in-vitro PX data): > 10000 nM
IC50 (Nav 1.7): 47.7 nM

IC50 (Nav 1.7; in-vitro PX): 115 nM
SMILES: COc1cc(-c2cccc(F)c2)c(Cl)cc1-c1ccnc2cc(S(=O)(=O)Nc3ccon3)ccc12 [Example 239, 4-(2-chloro-3′-fluoro-5-methoxy-4-biphenylyl)-N-3-isoxazolyl-7-quinolinesulfonamide]
IC50 (Nav 1.5; in-vitro PX): 11200 nM

IC50 (Nav 1.7; in-vitro PX data): 428 nM
SMILES: COc1cc(-c2cc(F)cc(F)c2)ccc1-c1nccc2cc(S(=O)(=O)Nc3cnsn3)ccc12 [Example 129, 1-(3′,5′-difluoro-3-methoxy-4-biphenylyl)-N-1,2,5-thiadiazol-3-yl-6-isoquinolinesulfonamide]
IC50 (Nav 1.5; in-vitro PX data): > 10000 nM

IC50 (Nav 1.7; in-vitro PX): 82.3 nM
SMILES: COc1cc(-c2cccc(F)c2)c(Cl)cc1-c1nn(C)c(=O)c2cc(S(=O)(=O)Nc3nncs3)ccc12 [Example 215, 1-(2-chloro-3′-fluoro-5-methoxy-4-biphenylyl)-3-methyl-4-oxo-N-1,3,4-thiadiazol-2-yl-3,4-dihydro-6-phthalazinesulfonamide]
IC50 (Nav 1.5; in-vitro PX): > 10000 nM

IC50 (Nav 1.7; in-vitro PX): 20.5 nM
SMILES: COc1cc(-c2ccc(C)c(Cl)c2)c(C#N)cc1-c1nccc2cc(S(=O)(=O)Nc3nncs3)ccc12 [Example 229, 1-(3′-chloro-2-cyano-5-methoxy-4′-methyl-4-biphenylyl)-N-1,3,4-thiadiazol-2-yl-6-isoquinolinesulfonamide]
IC50 (Nav 1.5; in-vitro PX): > 10000 nM

IC50 (Nav 1.7; in-vitro PX): 424 nM
SMILES: COc1nc(N2CCC(F)(F)CC2)c(Cl)cc1-c1nccc2cc(S(=O)(=O)Nc3nncs3)ccc12 [Example 244, 1-(5-chloro-6-(4,4-difluoro-1-piperidinyl)-2-methoxy-3-pyridinyl)-N-1,3,4-thiadiazol-2-yl-6-isoquinolinesulfonamide]
IC50 (Nav 1.5; in-vitro PX): > 30000 nM

IC50 (Nav 1.7; in-vitro Nav 1.7 PX data): 33.4 nM
SMILES: COc1cc(-c2ccc(F)c(F)c2)c(C)cc1-c1nccc2cc(S(=O)(=O)Nc3nncs3)ccc12 [Example 171, 1-(3′,4′-difluoro-5-methoxy-2-methyl-4-biphenylyl)-N-1,3,4-thiadiazol-2-yl-6-isoquinolinesulfonamide]
IC50 (Nav 1.5; in-vitro Nav 1.5 PX data): > 10000 nM

IC50 (Nav 1.7; PatchXpress (PX), in vitro): 174 nM
SMILES: COc1cc(-c2ccccc2)ccc1-c1nccc2cc(S(=O)(=O)Nc3nncs3)ccc12 [Example 50]
IC50 (Nav 1.5; PatchXpress (PX), in vitro): > 10000 nM

IC50 (Nav 1.7; in-vitro PX data): 62.5 nM
SMILES: COc1cc(-c2ccc(F)cc2)c(C#N)cc1-c1nccc2cc(S(=O)(=O)Nc3ccon3)ccc12 [Example 106, 1-(2-cyano-4′-fluoro-5-methoxy-4-biphenylyl)-N-3-isoxazolyl-6-isoquinolinesulfonamide]
IC50 (Nav 1.5; in-vitro PX data): > 10000 nM

IC50 (Nav 1.7; in-vitro PX): 45.6 nM
SMILES: COc1cc(-c2cc(F)cc(F)c2)c(C#N)cc1-c1ncnc2cc(S(=O)(=O)Nc3nncs3)ccc12 [Example 216, 4-(2-cyano-3′,5′-difluoro-5-methoxy-4-biphenylyl)-N-1,3,4-thiadiazol-2-yl-7-quinazolinesulfonamide]
IC50 (Nav 1.5; in-vitro PX): > 10000 nM
